# Reference: ChEMBL document CHEMBL1201862, “PubChem BioAssay data set” (2004)
#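 Protocol summary: plate cells (96-well), add compound at 5 concentrations, incubate 48 h, interpolate endpoints linearly. Abbreviation: GI50, concentration required for 50% inhibition of growth.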 Activity calls are given as the source filed them. No stated cut-off is given here; in the data, active = GI50 up to about 1.1 µM and inactive = higher.
# Columns and labels:
# Assay in all cases: inhibition of tumour cell growth, NCI panel, 48 h
# RPMI-8226 = tested on: RPMI-8226
# SK-OV-3 = tested on: SK-OV-3
# Malme-3M = tested on: Malme-3M
# PC-3 = tested on: PC-3
# SK-MEL-28 = tested on: SK-MEL-28
# UACC-62 = tested on: UACC-62
# UO-31 = tested on: UO-31
# HOP-62 = tested on: HOP-62
# MCF7 = tested on: MCF7
# HT-29 = tested on: HT-29
# SR = tested on: SR
# HOP-92 = tested on: HOP-92
# HCC 2998 = tested on: HCC 2998
# CCRF-CEM = tested on: CCRF-CEM
# NCI-H226 = tested on: NCI-H226
# NCI/ADR-RES = tested on: NCI/ADR-RES
# OVCAR-8 = tested on: OVCAR-8
# KM-20L2 = tested on: KM-20L2
# Hs-578T = tested on: Hs-578T
# ACHN = tested on: ACHN
Structure (SMILES),GI50 (RPMI-8226),GI50 (SK-OV-3),GI50 (Malme-3M),GI50 (PC-3),GI50 (SK-MEL-28),GI50 (UACC-62),GI50 (UO-31),GI50 (HOP-62),GI50 (MCF7),GI50 (HT-29),GI50 (SR),GI50 (HOP-92),GI50 (HCC 2998),GI50 (CCRF-CEM),GI50 (NCI-H226),GI50 (NCI/ADR-RES),GI50 (OVCAR-8),GI50 (KM-20L2),GI50 (Hs-578T),GI50 (ACHN)
COc1ccc(/C=C2\CCC(C)(CN(C)C)C2=O)cc1Br (stereo not given),19.1 µM (inactive),30.1 µM (inactive),25.8 µM (inactive),20.4 µM (inactive),22.9 µM (inactive),4.03 µM (inactive),18.1 µM (inactive),49.3 µM (inactive),13.5 µM (inactive),21.9 µM (inactive),19.1 µM (inactive),29.9 µM (inactive),20.8 µM (inactive),37.5 µM (inactive),18.9 µM (inactive),22.3 µM (inactive),17 µM (inactive),1.26 µM (inactive),30.5 µM (inactive),24.6 µM (inactive)
N/C(=N\N=C\c1c[nH]c2ccccc12)Nc1ccccc1,1 µM (active),0.418 µM (active),0.215 µM (active),0.201 µM (active),0.789 µM (active),0.248 µM (active),0.721 µM (active),0.308 µM (active),0.185 µM (active),0.191 µM (active),0.955 µM (active),0.392 µM (active),0.594 µM (active),0.918 µM (active),1.74 µM (inactive),0.148 µM (active),0.41 µM (active),0.327 µM (active),0.14 µM (active),0.671 µM (active)
